The values that follow come from a melting point compilation (Tetko et al.; mined from patent text by program, amines drawn as free bases though some values may be those of a salt).

With `CCOCc1nc2c(N)nc3cc(-c4cccc(C(=O)N5CCOCC5)c4)cnc3c2n1CC(C)(C)F`, the melting point – broadly, the temperature, or range, at which the solid turns liquid – was 167 to 168 °C.

`CCc1nn(C2CCCC2)c2c1CCn1c(-c3cccs3)nnc1-2` returned a melting point of 126 °C.

Take `COC(COc1cccc2c(OCC(OC)OC)cccc12)OC`: the melting point worked out at 117 °C.

The molecule `CCCCCCN(CCCCCC)c1c(N[C@@H](Cc2cn(Cc3ccccc3)cn2)C(=O)O)c(=O)c1=O` showed a melting point of 75 to 80 °C.

Molecule `COc1cccc(C(=O)C=C2CCCN2C)c1` yielded a melting point of 92 to 93 °C.

Take `O=C1CCC(N2C(=O)c3cccc(CNC(=O)c4cnccn4)c3C2=O)C(=O)N1` (configuration not stated): the melting point was more than 260 °C.

The molecule `Fc1ccc(F)c(CN2CCNc3ncc(-c4ccnc(N5CCOCC5)c4)cc32)c1Cl` yielded a melting point of 157 °C.

In turn, `Cc1cccc(C(=O)NC(C)C)c1NC(=O)c1cnc(C(F)(F)F)nc1C` returned a melting point of 248 to 251 °C.

With `Cc1cc(-c2cccc(NC(=O)N[C@@H]3c4cc(C#N)ccc4OC(C)(C)[C@H]3O)c2)no1`, the melting point was in the range of 110 to 120 °C.

`CNC(=O)C1=C(C)OC(C)=C(C(=O)NC)C1c1ccc(Cl)cc1` yielded a melting point of 256 to 259 °C.

With `CC1(C)Oc2ccc(C#N)cc2C(c2cccn(Cc3ccccc3)c2=O)C1O` (configuration not stated), the melting point lay in the range of 120 to 122 °C.

`c1cncc(Nn2ccc3ccccc32)c1` yielded a melting point of 127 to 128 °C.

Regarding `NC1=NN(c2cccc(Cl)n2)C(c2ccc(Cl)cc2)C1` (configuration not stated), the melting point fell in the range of 157 to 158 °C.

In turn, `COc1ccc2oc(N)c(C(N)=O)c(=O)c2c1` yielded a melting point of 270 °C.

On to `CCCN(CCCc1c[nH]c2c(Cl)cccc12)C1COc2c(F)ccc(C(N)=O)c2C1` (configuration not stated), for which the melting point is 145 to 154 °C.

As to `O=C(CN1C(=O)CC1S(=O)Cc1ccccc1)NCCCCCCc1ccccc1` (configuration not stated), the melting point fell in the range of 138 to 140 °C.

Regarding `C[C@H](CN(O)C(N)=O)NC(=O)OC(C)(C)C`, the melting point was in the range of 156 to 160 °C.

The molecule `O=c1cc(CO)n2c(n1)COc1ccccc1-2` came in with a melting point of 235 to 237 °C.

With `Cc1ccc(S(=O)(=O)c2ccc3c(c2)c(CCNC(=O)OC(C)(C)C)cn3C)cc1`, the melting point lay in the range of 144 to 148 °C.

Take `Cc1cc(-c2coc3c(-c4ccc(F)cc4)c(-c4ccc(S(C)(=O)=O)cc4)nn23)ccc1Cl`: the melting point was 202 to 205 °C.

In turn, `COc1ccc(Cn2c(=O)ccc3cnc(N4CCC[C@H]4CO)nc32)cc1Cl` registered a melting point of 142 to 143 °C.

In the case of `COC(C)=CC(=O)NC1CCCC1`, the melting point worked out at 94 °C.

`O=S(=O)(Br)c1cccs1` came in with a melting point of 49 to 51 °C.

`CC(=O)c1c(N(C)C)c(-c2ccccc2)n(Cc2ccc(Cl)cc2)c1C` returned a melting point of 118 to 119 °C.

In turn, `COc1cc(C=O)ccc1OCC(=O)c1cc(C(C)(C)C)c(O)c(C(C)(C)C)c1` showed a melting point of 99 to 100 °C.

Turning to `CCC(=O)N[C@@H](CC)c1nc2c(C(F)(F)F)cccc2c(O)c1C(=O)Nc1nccs1`, the melting point is more than 275 °C.

`CN(Cc1cccc(-c2ccc(CC3SC(=O)NC3=O)cc2)c1)C(=O)c1cc(Cl)cc(Cl)c1` (configuration not stated) came in with a melting point of 106 °C.

The molecule `COc1cc(NC(=O)Nc2cccc3c2C2CC(O)CCN2C3=O)nc2ccccc12` (configuration not stated) gave a melting point of more than 260 °C.

Molecule `O=C1CCC(=NNc2ccc(I)cc2)c2ncccc2N1` had a melting point of 204 to 205 °C.

With `CCC(CCCc1cccnc1)NC(=O)C(O)c1ccccc1` (configuration not stated), the melting point is 122 to 124 °C.

The molecule `O=C1OC(CCI)C(O)=C1OCc1ccccc1` (configuration not stated) gave a melting point of 101 to 104 °C.

For the molecule `COc1ccccc1[N+]1([O-])CC[N+]([O-])(CCN(C(=O)C2CCCCC2)c2ccccc2[N+](=O)[O-])CC1` (configuration not stated), the melting point was in the range of 153 to 157 °C.

Molecule `NC(C=C(CCCCO)CP(=O)(O)O)C(=O)O` (configuration not stated) came in with a melting point of 152 to 155 °C.

`CNC(=O)[C@@H]1C=CCN1S(=O)(=O)c1ccc(Cl)c(CBr)c1Cl` gave a melting point of 66 °C.

Consider `COC(=O)c1ccc(/C=C(\C)c2ccc3c(c2)CCCCN3C)cc1`, for which the melting point was 106 °C.

On to `COc1ccc(Oc2c(Br)cc(C=O)cc2Br)cc1Cc1ccc(=O)[nH]n1`, for which the melting point is 183 to 184 °C.

Molecule `CCN1CCc2ccc(Nc3ncc(Br)c(Nc4ccccc4C(=O)NC)n3)cc2CC1` came in with a melting point of 203 to 204 °C.

For `CC(=O)Nc1ccc(CCCOCCCCCCNCC(O)c2cc(Cl)c(N)c(Cl)c2)nc1` (configuration not stated), the melting point fell in the range of 66 to 67 °C.

Regarding `COc1ccc(OC)c(C=CC(=O)Nc2cnc3c(C)cc(C)cc3c2-c2ccccc2Cl)c1`, the melting point fell in the range of 209 to 210 °C.

`N#Cc1cc(C(F)(F)F)[nH]c1-c1ccc(Br)o1` returned a melting point of 224 to 226 °C.

As for `Oc1ccccc1C=NNc1nc(C(Cl)(Cl)Cl)ns1`, the melting point was 204 to 205 °C.

In the case of `CC(=O)OC1CSC(Oc2cccc(-c3ccncc3Cl)c2)C(OC(C)=O)C1OC(C)=O` (configuration not stated), the melting point lay in the range of 169 to 171 °C.

Consider `COC(=O)CN1Cc2c([nH]c3ccccc23)C1=O`, for which the melting point fell in the range of 215 to 217 °C.

In turn, `O=C(O)Cc1ccc(CN2CCN(C(c3ccccc3)c3ccccc3)CC2)cc1` registered a melting point of 183 to 185 °C.

Molecule `CC(Oc1ccc(Oc2nc3ccc(Cl)cc3o2)cc1)C(=O)OC[Si](C)(C)C` (configuration not stated) yielded a melting point of 68 °C.

On to `CS(=O)(=O)NNc1ccnc2c(NC(=O)c3c(Cl)cccc3Cl)cccc12`, for which the melting point fell in the range of 156 to 164 °C.

In turn, `CC(C)CC(NC(=O)C(NCc1ccccc1)C(C)C)C(=O)NC(CCCCNC(=O)OCc1ccccc1)C(=O)Oc1cccc2ccccc12` (configuration not stated) registered a melting point of 153 to 156 °C.

In turn, `COc1cc(N)c(Cl)cc1C(=O)NCCN(C)C1CC1` had a melting point of 164 to 165 °C.

Molecule `CC(C)(C)OC(=O)CCc1cccc(-c2nc(=O)c3ccc(C(F)(F)F)cc3s2)n1` gave a melting point of 148 to 149 °C.

`COc1ccc(N(C(=O)CN2C(=O)C(Cc3n[nH]c4ccccc34)(OC)C(=O)N(c3cccnc3)c3ccccc32)C(C)C)cc1` (configuration not stated) had a melting point of 207 to 209 °C.

`O=C(Cn1ccnc1)c1cc(Br)cc2ccccc12` registered a melting point of 242 to 244 °C.

In the case of `O=C(NCc1cccc([N+](=O)[O-])c1)Nc1ccccc1`, the melting point is 153 to 156 °C.

In the case of `Cc1cc(Cc2n[nH]c(=O)c3ccccc23)cc(C)n1`, the melting point fell in the range of 229 to 230 °C.

`Brc1ccc2ccn(Cc3ccccc3)c2c1` registered a melting point of 85 to 88 °C.

Molecule `O=C(O)CCN(C(=O)Cl)c1cccc(Cl)c1` showed a melting point of 106 °C.

For `Cc1nc(Nc2nc3ccc([N+](=O)[O-])cc3[nH]2)nc(O)c1CC(=O)O`, the melting point is more than 300 °C.

In turn, `OCc1nn(-c2ccc(Cl)cc2)c2c1CCCC2` showed a melting point of 125 to 126 °C.

The molecule `NC(=S)Nc1cc[nH]n1` had a melting point of 130 to 132 °C.

As to `COc1cc(OC)nc(Oc2ccccc2C=O)n1`, the melting point worked out at 81 °C.

`CN(C)c1ccc(NC(=O)N(Cc2ccccc2)C[C@@H]2CCCC[C@H]2CN(Cc2ccccc2)C(=O)Nc2ccc(N(C)C)cc2)cc1` (relative stereo): the melting point lay within 109 to 113 °C.

In the case of `O=C(NCCCCCn1cnc2cnc3ccccc3c21)c1ccccc1`, the melting point came out at 172 °C.

Regarding `CC(C)OCc1cnc2c([N+](=O)[O-])cccc2c1Cl`, the melting point lay within 83 to 86 °C.

With `CC(C)c1ccc(-c2nnc(-c3ccc(C(=O)O)cc3)s2)cc1`, the melting point was more than 300 °C.

Regarding `Cc1ccc(Cl)c(C2CC(=O)c3c(C)ccnc3C2)c1` (configuration not stated), the melting point is 123 to 124 °C.

`COc1cc(N)c(Cl)cc1C(=O)NCC1CCN(CCCCCOc2cccc3ccccc23)CC1` yielded a melting point of 91 to 93 °C.

Turning to `CCOC(=O)Oc1ccc(S(=O)(=O)N2c3cc(F)c(F)c(F)c3-n3cccc3C2CC)cc1` (configuration not stated), the melting point lay in the range of 131 to 132 °C.

Molecule `COc1ccccc1N1CCN(Cc2ccccc2)CC1=O` had a melting point of 109 to 111 °C.

With `CCCCN(CCCC)CCCCCOc1ccc(S(=O)(=O)c2c(CC)cn3ccccc23)cc1`, the melting point lay in the range of 89 to 90 °C.

Regarding `CCC(Sc1ccc(OC)c(Cl)c1Cl)C(=O)O` (configuration not stated), the melting point is 143 to 145 °C.

The molecule `COCCn1cc2c(=O)[nH]c(=O)[nH]c2n1` returned a melting point of 295 to 302 °C.

Turning to `CC(=O)NCc1cc(C(C)(C)C)c(O)c(C(C)(C)C)c1`, the melting point lay in the range of 80 to 84 °C.

`CC(=O)/C=C(\C)c1ccc(-c2ccccc2)c(Cl)c1` registered a melting point of 66 to 67 °C.

The molecule `CCCCCCCCOc1ccc2cc(C(=O)O)ccc2c1` displayed a melting point of 150 to 153 °C.

In turn, `Cc1ccc(N2C(=O)C(O)=C(C(=O)c3ccc(C(C)C)cc3)C2c2ccc(Cn3cccn3)cc2)nn1` (configuration not stated) registered a melting point of 263 °C.

The molecule `CC(C)(C)OC(=O)N1CCN(c2ccccc2O)CC1` yielded a melting point of 115 to 117 °C.

On to `CCOC(=O)c1c(N2CCN(C(=O)c3cccs3)CC2)c2cccnc2n(CCN(C)C)c1=O`, for which the melting point came to 134 °C.

`Nc1sc2c(c1C(=O)c1ccc(I)c3ccccc13)CCCC2` showed a melting point of 180 to 182 °C.

For `C=CCN1C(=O)COc2cc(F)c(-n3c(=O)cc(CC)[nH]c3=O)cc21`, the melting point is 197 to 200 °C.

The molecule `COC(=O)C1=CC=Nc2ccccc2C1` gave a melting point of 168 to 173 °C.

On to `COC(=O)c1nc(OC)sc1-c1ccccc1`, for which the melting point lay within 86 to 88 °C.

Take `COc1ccc(C[C@@H]2COc3ccc(OCc4ccc5ccccc5n4)cc3[C@H]2O)cc1OC` (relative stereo): the melting point worked out at 175 °C.

Consider `CC(C(=O)Oc1cc(=O)n(-c2cccc(C(F)(F)F)c2)c2ncccc12)c1ccccc1` (configuration not stated), for which the melting point lay in the range of 42 to 57 °C.

`CCCn1c(-c2ccc(-n3ccnc3)cc2)cnc1[C@H](Cc1ccccn1)N(C=O)c1cc2cc(C(F)(F)F)ccc2o1`: the melting point lay in the range of 92 to 98 °C.

Take `COCC(=O)N1CCN(CCc2ccc(-c3cccc(N)n3)cc2)CC1`: the melting point was in the range of 148 to 150 °C.

Molecule `O=C(O)CN(CC(=O)O)Cc1cc(S(=O)(=O)c2ccc(OCc3ccccc3)cc2)cc(CN(CC(=O)O)CC(=O)O)c1O` displayed a melting point of 138 to 143 °C.

In turn, `COC(=O)Nc1ccc(-c2ncon2)cc1` gave a melting point of 174 to 176 °C.

`Cc1ccc(-c2ccc3nnn(Cc4ccc5ncccc5c4)c3n2)s1` came in with a melting point of 154 to 156 °C.
